Laboratory results reported in patent publication US20140057997A1, “COSMETIC COMPOSITION COMPRISING 4-(3-ETHOXY-4-HYDROXYPHENYL)-2-BUTANONE AND A LIPOPHILIC SOLVENT” (L'OREAL, priority 2011, published 2014).

Assay: Solubility stated in the introduction
Format: physicochemical

Measured: Solubility

CCOc1cc(CCC(C)=O)ccc1O [4-(3-ethoxy-4-hydroxyphenyl)-2-butanone, 4-(3-Ethoxy-4-hydroxyphenyl)-2-butanone]
very sparingly soluble: in 2-octyldodecanol | in glycerol | in water
